Data on one compound can be found in patent US9937194B1, “Compounds and methods for treating inflammatory diseases” (priority 2009, dated 2018).

Molecules are shown by their SMILES. Bounds are passed on as bounds.

What all share (assay type): cell-based, human
One experiment has as its system Akt. The experiment in a line: H2O2-induced phosphorylation of Akt in PMA-differentiated U937 cells (western blot). Particulars: p<0.05 versus H2O2 only, n=3 or 4. The procedure: Cell Lysis and Western Blotting. Whole cell protein extracts are prepared using modified RIPA buffer (50 mM Tris HCL pH 7.4, 0.5% NP-40, 0.25% Na-deoxycholate, 150 mM NaCl with freshly added complete protease (Roche). Phosphatase inhibitor (Active Motif) is also added when required. Protein concentration is determined using the Bio-Rad Protein Assay (Bio-Rad). Proteins are separated by SDS-PAGE under denaturing conditions, and electrotransferred to a nitrocellulose membrane (Amersham Biosciences, Amersham, U.K.) (Western blotting). The membranes are blocked in TBS containing 0.05% Tween 20 and 5% non-fat dried milk, and then incubated with anti-pAkt or Akt antibody followed by an horse radish peroxidase-conjugated secondary antibody (Dako UK Ltd., Ely, UK). Bound antibodies are visualized by ECL Plus (GE Healthcare UK Ltd., Little Chalfont, UK). The band density is calculated by densitometry (UVP Bioimaging Systems, Cambridge, UK) using Labworks software (Ultra-Violet Products, Cambridge, UK).
Effects of compounds on H2O2-induced phosphorylation of Akt in PMA-differentiated U937 cells. PMA-differentiated macrophage-like cells are pretreated with compounds described herein for 20 min. After H2O2 (1 mM) stimulation for 30 min, cells are lysed. Phosphorylation levels of Akt are measured by western blot. Data are calculated relative to total protein, and expressed as fold changes against positive control treated with H2O2 only. Values represent means of three or four experiments±SEM.

In a further experiment the test system is MMP9. The experiment in a line: PMA-induced MMP9 expression in U937 cells (gelatin zymography). As for the experimental part:
Zymography. MMP9 enzyme activity is measured by gelatin zymography. 5 μl of supernatants were diluted with 5 μl Laemli sample buffer (Bio-Rad) and are loaded on a Novex® 10% Zymogram (Gelatin) gel (Invitrogen). After electrophoresis (90 min, 125 V, 35 mA, 5 W) gels are incubated with 1× Novex® zymogram renaturing buffer (Invitrogen) for 30 min at room temperature with gentle agitation. Gels are then rinsed in 1× Novex® zymogram developing buffer (Invitrogen) for 30 min at room temperature with gentle agitation prior to overnight incubation in the developing buffer at 37° C. After incubation the gels are stained using the colloidal blue staining kit (Invitrogen) with buffer containing 20% methanol and 70% distilled water to visualize the zymogen bands. Relevant band intensities are quantified by densitometric analysis using the UVP GelDoc-It system.
Effects of compounds on PMA-induced MMP9 expression in U937 cells. U937 cells are pretreated with compounds described herein for 1 hr, followed by PMA (50 ng/ml) treatment for 48 hrs. After 48 hrs supernatants are collected for zymography. MMP9 enzyme activity is measured by gelatin zymography. Data are expressed as fold changes against positive control treated with PMA only. Values represent means of three experiments±SEM.

The next experiment relates to TNFα. The experiment is described as follows: LPS-induced TNFα release in PMA-differentiated U937 cells (ELISA). As for the experimental part: (§1) Cytokine ELISA. LPS-induced IL-8, TNFα concentrations and TNFα-induced IL-8 concentrations are determined by sandwich ELISA according to the manufacturer's instructions (R&D Systems Europe). IC50 values for dexamethasone on IL-8 production are calculated using the computer program Prism 4.0 (GraphPad Software Inc., San Diego, Calif.) as a marker for steroid sensitivity.
(§2) Effects of compounds on LPS-induced IL-8 and TNFα release in PMA-differentiated U937 cells. PMA-differentiated macrophage-like cells are pretreated with compounds described herein for 1 hr, followed by LPS (100 ng/ml) stimulation for 4 hrs. LPS-induced IL-8 and TNFα release is evaluated by ELISA. Values represent means of three experiments±SEM.

Another experiment concerns HDAC activity. The experiment is described as follows: H2O2-induced reduction of HDAC activity in PMA-differentiated U937 cells. As for the experimental part: In cell HDAC assay. Cells are incubated with Fluor de Lys™ substrate for 1 hr before lyses. Total HDAC activity from whole cell extracts is measured using the HDAC Fluorimetric Assay/Drug Discovery Kit (BIOMOL® International, Inc., Plymouth Meeting, Pa.).
HDAC expression: In cell HDAC activity assay: U937 is differentiated to macrophage type cells by PMA for 3 days. HDAC fluorescent substrate (Biomol) is added before exposure of oxidative stress (H2O2, 200 μM) or Tobacco smoke conditioned medium for 4 hrs. HDAC activity is measured (Biomol kit). Compounds at different concentrations are treated 20 min before oxidative stress treatment.
PMA-differentiated macrophage-like cells are pretreated with compounds described herein for 20 min. After H2O2 (200 μM) stimulation for 4 hrs, HDAC activity is assayed. Data are expressed as fold changes against positive control treated with H2O2 only. Values represent means of four experiments±SEM.

A further experiment has as its system IL-8. The experiment in a line: LPS-induced IL-8 release in PMA-differentiated U937 cells (ELISA). The procedure: as §1, §2
The subject of the next experiment is HDAC2 mRNA. The experiment in a line: Cigarette smoke extract-induced reduction of HDAC2 mRNA in A549 cells. The procedure:
Preparations of cigarette smoke extract. To prepare the cigarette smoke extract, two full-strength Marlboro cigarettes (filters removed; Phillip Morris USA, Richmond, Va.) are combusted through a modified 60-ml syringe apparatus, and the smoke passed through 20 ml of DMEM medium. Each cigarette generally yields five draws of the syringe (to the 60-ml mark), with each individual draw taking approximately 10 s to complete. Cigarette smoke extract is then passed through a 0.20-μm filter to sterilize and remove particulate matter and is used immediately unless otherwise stated.
Quantitative RT-PCR. Total RNA extraction and reverse transcription are performed using an RNeasy kit (QIAGEN, Crawley, UK) and a High-Capacity cDNA Reverse Transcription Kits (Applied Biosystems, Foster City, Calif.). Gene transcript level of HDAC2 (HS00231032_M1, Applied Biosystems, California, USA) and the house-keeping gene, guanine nucleotide binding protein beta polypeptide-2-like 1 (GNB2L1) (HS00272002_M1, Applied Biosystems) are quantified by real-time PCR using a TaqMan® Gene Expression Master Mix (Applied Biosystems) on a Rotor-Gene 6000 (Corbett Research, Cambridge, UK). Transcripts are analysed by the delta (D) CT method and variations in cDNA concentrations between different samples were corrected using GNB2L1.
Effects of macrolides on cigarette smoke extract-induced (CSE-induced) reduction of HDAC2 mRNA in A549 cells. Cells pretreated with compounds described herein for 30 min are exposed to CSE (0.15 O.D.) for 1 hr. The cells are washed twice and incubated with medium only for 4 hrs. Data are expressed as % reduction from baseline (left) or % increase from baseline under H2O2. Values represent means of three experiments±SEM. Example 33 reverses cigarette smoke extract-induced (CSE-induced) reduction of HDAC2 mRNA expression in A549 cells at concentrations of about 10 μM or greater, and with statistical significance of p<0.05 versus treatment with CSE only (one-way ANOVA with post hoc test, n=3) at doses of about 30 μM or greater.

As for `CCC1OC(=O)C(C)C(OC2CC(C)(OC)C(O)C(C)O2)C(C)C(OC2OC(C)CC(N(C)C)C2O)C(C)(O)CC(C)CN(C(C)=O)C(C)C2OC(=O)OC12C` (stereo not shown) [Example 33], the “concentration at which inhibition of Akt phosphorylation is statistically significant” value in the experiment with Akt was ≥ 100 µM. Also, the half-inhibitory concentration (IC50) with MMP9 (PMA-induced MMP9 expression, U937, NA = inactive) was determined as 56 ± 19 µM; with TNFα (LPS-induced TNFα release, PMA-differentiated U937, NA = inactive), 97 ± 5 µM; in the experiment with IL-8 (LPS-induced IL-8 release, PMA-differentiated U937, NA = inactive) it was 95 ± 14 µM. Moreover, the “concentration at which PMA-induced MMP9 up-regulation is inhibited” value in the experiment with MMP9 (U937, pretreated 1 hr, PMA 50 ng/ml 48 hrs) was ≥ 33 µM. For the same compound, the “concentration at which inhibition of MMP9 up-regulation is statistically significant” value in the experiment on MMP9 (p<0.05 versus PMA only, n=3) was ≥ 100 µM. The “concentration at which LPS-induced TNFα release is inhibited” value in the experiment on TNFα (pretreated 1 hr, LPS 100 ng/ml 4 hrs, p<0.01, n=3) was ≥ 100 µM. For the same compound, the “HDAC activity reached compared with untreated controls” value in the experiment on HDAC activity (PMA-differentiated U937, H2O2 200 μM, comparators at highest doses tested) is “higher than untreated controls”. In addition, in the experiment with HDAC activity (PMA-differentiated U937, pretreated 20 min, H2O2 200 μM 4 hrs), the “concentration at which the H2O2-induced reduction in HDAC activity is restored” value was ≥ 10 µM. Also, the “concentration at which restoration of HDAC activity is statistically significant” value in the experiment with HDAC activity (p<0.01 versus H2O2 only, n=4) was ≥ 30 µM. For the same compound, the “concentration at which LPS-induced IL-8 release is inhibited” value in the experiment with IL-8 (pretreated 1 hr, LPS 100 ng/ml 4 hrs, p<0.05, n=3) was ≥ 100 µM. Moreover, in the experiment on HDAC2 mRNA (A549, pretreated 30 min, CSE 0.15 O.D. 1 hr), the “concentration at which CSE-induced reduction of HDAC2 mRNA expression is reversed” value was ≥ 10 µM. Moreover, the “concentration at which reversal of HDAC2 mRNA reduction is statistically significant” value in the experiment with HDAC2 mRNA (p<0.05 versus CSE only, n=3) was ≥ 30 µM.
